Assay results reported in EP0392802A2, “Preparation of urea analogues and their use in bronchial, cerebrovascular and neuronal disorders” (Beecham Group p.l.c., priority 1989, dated 1990).

Test system: guinea pig tracheal spiral preparations
Assay: Bronchodilation in vitro; guinea pig tracheal spiral preparations (relaxation of resting tension relative to isoprenaline)
Settings: fall in tension as percentage of total relaxation evoked by 10⁻³M isoprenaline; cumulative dosing 10⁻⁸-2x10⁻⁵M; resting tension 2g; krebs solution at 37°C; read-out: IC₅₀
Experimental: Male guinea pigs (300-600g) were stunned by a blow to the head and bled from the carotid artery. The trachea was exposed, dissected free of connective tissue, and transferred to oxygenated krebs solution at 37 °C. Next, spirals (2 per trachea) were prepared by cutting the whole trachea spirally along its longitudinal axis and then dividing this spiral lengthwise. Each preparation was mounted, using silk thread, in a 10ml organ bath filled with krebs solution at 37 °C and bubbled with 5% CO₂ with O₂. The resting tension of the preparations was set at 2g and changes in muscle tension were monitored isometrically by means of a UFI (2oz) force and displacement transducer (Ormed Ltd) connected to a Linseis pen recorder. All preparations were allowed to equilibrate for 60 minutes. During this equilibration period the preparations were washed by upward displacement at 15 minute intervals and, if necessary, the resting tension was readjusted to 2g using a mechanical micromanipulator system.
Once a steady resting tension had been obtained, the preparations were dosed cumulatively with the test compound (10⁻⁸-2x10⁻⁵M), and finally a maximum relaxation achieved by addition of 10⁻³M isoprenaline.
The fall in tension evoked by the test compound was expressed as a percentage of the total relaxation evoked in the presence of 10⁻³M isoprenaline. […]

| SMILES | IC50 [µM] |
| --- | --- |
| CC(NC(=S)Nc1ccc(F)cc1)C(C)(C)C (racemic) [Example 3, (±)-N-4-Fluorophenyl-N′-1,2,2-trimethylprop-1-ylthiourea] | 5.9 |
| CC(NC(=NC#N)Nc1ccc(C#N)cc1)C(C)(C)C (racemic) [Example 4, (±)-N˝-Cyano-N-4-cyanophenyl-N′-1,2,2-trimethylprop-1-ylquanidine] | 3 |
